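48-hour exposure; five concentrations; linearly interpolated endpoints. Here, GI50 denotes the concentration required for 50% inhibition of growth. At the TGI there is no net growth.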
Experiments:
Test in all cases: NCI tumour cell line growth inhibition, 48 h
[1] = system: MALME-3M melanoma
[2] = system: UACC-62 melanoma
[3] = system: HT29 colon
[4] = system: HCT-15 colon
[5] = system: OVCAR-5 ovarian
[6] = system: OVCAR-3 ovarian
[7] = system: UACC-257 melanoma
[8] = system: SR leukemia
[9] = system: IGROV1 ovarian
[10] = system: HOP-92 NSCLC
[11] = system: HOP-62 NSCLC
[12] = system: PC-3 prostate
[13] = system: SF-539 CNS
[14] = system: UO-31 renal
[15] = system: CCRF-CEM leukemia
[16] = system: HCC-2998 colon
[17] = system: SK-MEL-28 melanoma
[18] = system: A549 NSCLC
[19] = system: 786-0 renal
[20] = system: COLO 205 colon
[21] = system: MDA-MB-231 breast
[22] = system: T-47D breast
[23] = system: TK-10 renal
[24] = system: ACHN renal
[25] = system: MOLT-4 leukemia
[26] = system: RPMI-8226 leukemia
[27] = system: K-562 leukemia
[28] = system: MDA-MB-435
[29] = system: A498 renal
[30] = system: NCI-H522 lung
[31] = system: SW-620 colon
[32] = system: CAKI-1 renal
[33] = system: HS 578T breast
[34] = system: NCI-H460 lung
[35] = system: SK-OV-3 ovarian
[36] = system: LOX IMVI melanoma
[37] = system: EKVX NSCLC
[38] = system: RXF 393 renal
[39] = system: KM12 colon
[40] = system: DU-145 prostate
[41] = system: BT-549 breast
[42] = system: NCI-H226 lung
[43] = system: OVCAR-8 ovarian
[44] = system: SF-295 CNS
[45] = system: MCF7 breast
[46] = system: SK-MEL-2 melanoma
[47] = system: NCI-H23 lung
[48] = system: NCI/ADR-RES ovarian
[49] = system: SNB-75 CNS
[50] = system: HCT-116 colon
[51] = system: HL-60(TB) leukemia
[52] = system: OVCAR-4 ovarian
[53] = system: SN12C renal
[54] = system: SK-MEL-5 melanoma
[55] = system: SF-268 CNS
[56] = system: U251 CNS
[57] = system: SNB-19 CNS

In the case of `CC[C@@H](C(=O)[C@@H](C)[C@@H](O)[C@H](C)[C@@H]1O[C@@H]([C@@H](CC)C(=O)N(CC)CC)CC[C@@H]1C)C1O[C@]2(C=CC(=O)[C@]3(CC[C@@](C)([C@H]4CC[C@](O)(CC)[C@H](C)O4)O3)O2)[C@H](C)C[C@@H]1C` (some centres undefined), the GI50 [1] is reported as 1.93 µM, the TGI [1] is reported as 4.9 µM and the GI50 [2] is reported as 1.83 µM. The TGI [2] was 5.81 µM, the GI50 [3] was 2.73 µM and the TGI [3] was 15.6 µM. For the same compound, the GI50 [4] was 2.02 µM, the TGI [4] was 4.51 µM and the GI50 [5] was 2.85 µM. The TGI [5] was 10.1 µM, the GI50 [6] was 2.34 µM and the TGI [6] was 6.49 µM. The GI50 [7] was 3.17 µM, the TGI [7] was 19.9 µM and the GI50 [8] was 2.39 µM. For the same compound, the TGI [8] was 6.63 µM, the GI50 [9] was 2.31 µM and the TGI [9] was 7.71 µM. The GI50 [10] was 1.35 µM, the TGI [10] was 4.6 µM and the GI50 [11] was 3.75 µM. It also gave a TGI [11] of 20.1 µM, a GI50 [12] of 2.6 µM and a TGI [12] of 24.7 µM. It also gave a GI50 [13] of 2.26 µM, a TGI [13] of 5.47 µM and a GI50 [14] of 2.42 µM. For the same compound, the TGI [14] was 10.2 µM, the GI50 [15] was 3.01 µM and the TGI [15] was 14.4 µM. It also gave a GI50 [16] of 1.97 µM, a TGI [16] of 4.79 µM and a GI50 [17] of 4.45 µM. For the same compound, the TGI [17] was 21.3 µM, the GI50 [18] was 3.21 µM and the TGI [18] was > 100 µM. For the same compound, the GI50 [19] was 3.22 µM, the TGI [19] was 15.9 µM and the GI50 [20] was 2.35 µM. The TGI [20] was 5.4 µM, the GI50 [21] was 1.69 µM and the TGI [21] was 3.33 µM. The GI50 [22] was 2.59 µM, the TGI [22] was 9.44 µM and the GI50 [23] was 3.49 µM. For the same compound, the TGI [23] was > 100 µM, the GI50 [24] was 2.16 µM and the TGI [24] was 5.19 µM. For the same compound, the GI50 [25] was 2.66 µM, the TGI [25] was 8.06 µM and the GI50 [26] was 2.12 µM. For the same compound, the TGI [26] was 6.42 µM, the GI50 [27] was 2.89 µM and the TGI [27] was > 100 µM. The GI50 [28] was 2.91 µM, the TGI [28] was 9.95 µM and the GI50 [29] was 2.25 µM. The TGI [29] was 7.51 µM, the GI50 [30] was 2.02 µM and the TGI [30] was 6.46 µM. The GI50 [31] was 3.11 µM, the TGI [31] was 23.5 µM and the GI50 [32] was 2.18 µM. It also gave a TGI [32] of 13.5 µM, a GI50 [33] of 2.68 µM and a TGI [33] of 16.1 µM. The GI50 [34] was 2.11 µM, the TGI [34] was 4.94 µM and the GI50 [35] was 3.87 µM. For the same compound, the TGI [35] was > 100 µM, the GI50 [36] was 1.58 µM and the TGI [36] was 3.17 µM. The GI50 [37] was 2.75 µM, the TGI [37] was 18.6 µM and the GI50 [38] was 1.66 µM. The TGI [38] was 4.06 µM, the GI50 [39] was 1.82 µM and the TGI [39] was 3.68 µM. It also gave a GI50 [40] of 3.41 µM, a TGI [40] of 12.6 µM and a GI50 [41] of 3.29 µM. For the same compound, the TGI [41] was 61.9 µM, the GI50 [42] was 2.21 µM and the TGI [42] was 6.71 µM. The GI50 [43] was 3.55 µM, the TGI [43] was > 100 µM and the GI50 [44] was 2.26 µM. For the same compound, the TGI [44] was 6.51 µM, the GI50 [45] was 2.41 µM and the TGI [45] was 8.11 µM. For the same compound, the GI50 [46] was 2.71 µM, the TGI [46] was 7.85 µM and the GI50 [47] was 2.4 µM. The TGI [47] was 6.91 µM, the GI50 [48] was 2.82 µM and the TGI [48] was 26.9 µM. It also gave a GI50 [49] of 1.9 µM, a TGI [49] of 17.4 µM and a GI50 [50] of 3.18 µM. For the same compound, the TGI [50] was 17.4 µM, the GI50 [51] was 2.16 µM and the TGI [51] was 4.95 µM. For the same compound, the GI50 [52] was 2.96 µM, the TGI [52] was 15.3 µM and the GI50 [53] was 2.41 µM. The TGI [53] was 8.64 µM, the GI50 [54] was 1.69 µM and the TGI [54] was 3.09 µM. It also gave a GI50 [55] of 3.25 µM, a TGI [55] of 80.9 µM and a GI50 [56] of 3.1 µM. The TGI [56] was 13.4 µM, the GI50 [57] was 3.31 µM and the TGI [57] was > 100 µM.

Source: PubChem BioAssay (NCI)
